Results on ten compounds are retold here after publication PMC8830247 (Journal of medicinal chemistry, 2019).

For one data set, the target named is Human Dopamine D3R (Homo sapiens, UniProt P35462). Kind of data set: Stimulation or inhibition of quinpirole-stimulated mitogenesis in CHO cells. In kind it is cell-based. Particulars: mitogenesis assay.
A further data set has as its system D3R. Particulars: cited from earlier work.
For data set [1] the following is noted: hot plate assay; cited from earlier work. Background: In hot-plate and tail-flick tests a longer latency is read as antinociception.
Data set [2] concerns oxycodone self-administration. Particulars: cited from earlier work.
Another data set relates to rats. As to conditions: pretreatment, rats chronically treated with oxycodone; cited from earlier work.
Data set [3] in a line: Pharmacokinetics in rats after oral administration, plasma and brain. As to conditions: PO 10 mg/kg.
The target of another data set is T1, 5-HT1A receptor (Homo sapiens, UniProt P08908).
T1 sequence (P08908 1-422): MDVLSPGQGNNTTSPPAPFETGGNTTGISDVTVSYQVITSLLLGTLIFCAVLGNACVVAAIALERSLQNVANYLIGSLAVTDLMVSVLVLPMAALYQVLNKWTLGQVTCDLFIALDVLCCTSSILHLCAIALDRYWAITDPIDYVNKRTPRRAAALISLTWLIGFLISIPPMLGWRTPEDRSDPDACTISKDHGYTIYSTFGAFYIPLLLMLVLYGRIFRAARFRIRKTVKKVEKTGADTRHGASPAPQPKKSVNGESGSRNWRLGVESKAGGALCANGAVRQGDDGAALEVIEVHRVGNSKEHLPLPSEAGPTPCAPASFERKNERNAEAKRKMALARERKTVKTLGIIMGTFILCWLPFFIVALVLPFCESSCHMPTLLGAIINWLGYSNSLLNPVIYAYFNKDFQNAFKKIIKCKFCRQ
In words: 5-HT1A [35S]GTPγS binding functional assay.

For data set [4] the following is noted: rats, PO 10 mg/kg; adapted from previously reported data; cited from earlier work.
For a further data set, the system named is dogs. As to conditions: cited from earlier work.

Sequence of Human Dopamine D3R (P35462 whole entry): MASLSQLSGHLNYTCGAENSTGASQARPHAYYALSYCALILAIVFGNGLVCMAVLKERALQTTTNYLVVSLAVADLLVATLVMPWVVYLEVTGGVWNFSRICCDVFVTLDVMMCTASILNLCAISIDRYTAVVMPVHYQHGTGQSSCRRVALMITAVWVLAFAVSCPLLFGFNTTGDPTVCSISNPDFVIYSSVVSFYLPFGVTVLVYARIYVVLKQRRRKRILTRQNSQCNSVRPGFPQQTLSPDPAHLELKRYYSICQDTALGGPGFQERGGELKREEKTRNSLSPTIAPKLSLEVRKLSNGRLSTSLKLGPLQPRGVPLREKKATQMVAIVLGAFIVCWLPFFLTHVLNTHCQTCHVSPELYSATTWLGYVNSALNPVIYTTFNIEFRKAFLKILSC

Consider `CCc1cc(Cl)c(OC)c(N2CCN(C[C@@H](O)CCNC(=O)c3cc4ccccc4[nH]3)CC2)c1` [(S)-4, (S)-N-(4-(4-(3-Chloro-5-ethyl-2-methoxyphenyl)piperazin-1-yl)3-hydroxybutyl)-1H-indole-2-carboxamide], for which the “D3R functional efficacy (in words)” value at Human Dopamine D3R is “D3R antagonists”.
For the compound `O=C(NCC[C@@H](O)CN1CCN(c2cccc(Cl)c2Cl)CC1)c1cc2ccccc2[nH]1` [(R)-2], the “D3R functional efficacy (in words)” value with D3R was “antagonist”.
For `O=C(NCC[C@H](O)CN1CCN(c2cccc(Cl)c2Cl)CC1)c1cc2ccccc2[nH]1` [(S)-2], in the data set with D3R, the “D3R functional efficacy (in words)” value is “weak partial agonist”.
Take `CCc1cc(Cl)c(OC)c(N2CCN(C[C@H](O)CCNC(=O)c3cc4ccccc4[nH]3)CC2)c1` [(R)-4, (R)-N-(4-(4-(3-Chloro-5-ethyl-2-methoxyphenyl)piperazin-1-yl)3-hydroxybutyl)-1H-indole-2-carboxamide]: the “D3R functional efficacy (in words)” value at Human Dopamine D3R is reported as “D3R antagonists”.
`CCc1cc(Cl)c(OC)c(N2CCN(CC(O)CCNC(=O)c3cc4ccccc4[nH]3)CC2)c1` (centres unmarked) [compound 4]: the “effect on antinociceptive actions of oxycodone” value in data set [1] is “no effect”. Further, in data set [2], the “acquisition and maintenance of oxycodone self-administration” value was “dose-dependently inhibited”; the “oxycodone extinction response and reinstatement of oxycodone-seeking” value was “inhibited oxycodone extinction response and reinstatement of oxycodone-seeking behaviors”. Besides, the “break-point for oxycodone self-administration” value in data set [2] (progressive-ratio schedule of reinforcement) is recorded as “lowering the break-point”. In addition, in the data set with rats, the “naloxone-precipitated conditioned place aversion” value is reported as “dose-dependently reduced”.
On to `CCc1cccc(N2CCN(C[C@@H](O)CCNC(=O)c3cc4ccccc4[nH]3)CC2)c1Cl` [(S)-5, (S)-N-(4-(4-(2-Chloro-3-ethylphenyl)piperazin-1-yl)-3-hydroxybutyl)-1H-indole-2-carboxamide], for which the “brain Cmax” value in [3] was determined as 3666.7 ± 312.7 pmol/g.
For the compound `CCc1cccc(N2CCN(CC(F)CCNC(=O)c3cc4ccccc4o3)CC2)c1Cl` (centres unmarked) [10b, N-(4-(4-(2-Chloro-3-ethylphenyl)piperazin-1-yl)-3-fluorobutyl)benzofuran-2-carboxamide], the “5-HT1A functional efficacy (in words)” value at 5-HT1A receptor is “low potency partial agonist”.
As for `CCc1cccc(N2CCN(C[C@H](O)CCNC(=O)c3cc4ccccc4[nH]3)CC2)c1Cl` [(R)-5, (R)-N-(4-(4-(2-Chloro-3-ethylphenyl)piperazin-1-yl)-3-hydroxybutyl)-1H-indole-2-carboxamide], the “plasma exposure (AUC0-t)” value in [4] was 1.985 ± 0.2786 µM·h.
With `CCc1cccc(N2CCN(CC(O)CCNC(=O)c3cc4ccccc4[nH]3)CC2)c1Cl` (centres unmarked) [compound 5], the “D3R functional efficacy (in words)” value in the data set on D3R was “relatively low efficacy partial agonist”.
For the compound `Cc1ncoc1-c1nnc(SCCCN2C[C@@H]3C[C@]3(c3ccc(C(F)(F)F)cc3F)C2)n1C` [compound 1], in the data set with dogs, the “blood pressure effect when coadministered with cocaine” value was “produced hypertension”.
